For 20 molecules, Ki results are on record in patent publication US8138189B2, “Substituted benzene compounds as modulators of the glucocorticoid receptor” (Hoffman-La Roche Inc., priority 2009, dated 2012).

The target in this assay is T1, full length human recombinant glucocorticoid receptor (Homo sapiens, UniProt P04150).
T1 construct: partially purified full length human recombinant glucocorticoid receptor; purchased Panvera/Invitrogen PV4302
T1 sequence (P04150 1-777): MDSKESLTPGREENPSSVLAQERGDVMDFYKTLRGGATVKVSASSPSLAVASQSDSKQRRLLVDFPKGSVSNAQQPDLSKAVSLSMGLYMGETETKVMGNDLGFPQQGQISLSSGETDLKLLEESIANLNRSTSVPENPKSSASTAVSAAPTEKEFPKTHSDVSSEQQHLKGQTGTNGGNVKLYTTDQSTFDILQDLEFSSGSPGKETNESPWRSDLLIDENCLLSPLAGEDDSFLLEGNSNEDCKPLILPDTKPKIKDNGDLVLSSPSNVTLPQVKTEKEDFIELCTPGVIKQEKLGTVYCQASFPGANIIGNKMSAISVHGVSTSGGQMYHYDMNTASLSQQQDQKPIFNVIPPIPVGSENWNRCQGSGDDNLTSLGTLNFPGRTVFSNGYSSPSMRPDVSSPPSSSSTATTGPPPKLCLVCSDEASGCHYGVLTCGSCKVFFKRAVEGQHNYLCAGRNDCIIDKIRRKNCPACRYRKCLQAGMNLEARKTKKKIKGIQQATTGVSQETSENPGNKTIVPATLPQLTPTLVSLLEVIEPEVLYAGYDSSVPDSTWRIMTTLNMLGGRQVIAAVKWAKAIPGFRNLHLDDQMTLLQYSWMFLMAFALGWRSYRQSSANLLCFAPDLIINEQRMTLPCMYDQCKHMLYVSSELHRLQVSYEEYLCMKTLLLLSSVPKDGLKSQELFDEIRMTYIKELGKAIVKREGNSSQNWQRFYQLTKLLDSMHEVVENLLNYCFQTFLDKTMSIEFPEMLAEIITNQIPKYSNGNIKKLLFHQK
Put plainly: Glucocorticoid Receptor Binding Assay (fluorescence polarization competitor assay, Fluormone GS Far Red tracer). On the procedure:
Glucocorticoid Receptor Binding Assay
The ability of the substances to bind to the glucocorticoid receptor was determined with the help of a commercial Glucocorticoid Receptor Competitor Assay far red kit provided by Panvera/Invitrogen (PV4302). This kit is used as provided by the supplier. It contains some partially purified full length human recombinant glucocorticoid receptor, a coactivator related GR stabilizing peptide, a tight-binding fluorescent GR ligand Fluormone™ GS Far Red as labeled tracer and a screening buffer. All reagents are prepared and the assay is run according to the recommendations of the kit manufacturer.
Briefly, the GR stabilizing peptide and the human recombinant glucocorticoid receptor are both diluted with the screening buffer (pH 7.4) and are gently mixed (no vortexing) just before the assay and kept on ice until use. The fluorescent-labeled ligand is also diluted with the screening buffer just before the assay and kept on ice until use. The substances to test are pre-diluted in pure DMSO then some water is added to get an intermediate 4.2% DMSO stock solution. Ten microliter of the intermediate stock solution is gently mixed with 5 μl of diluted fluorescent-labeled ligand and 5 μl of diluted human recombinant glucocorticoid receptor in a 384-well plate (low volume, ultraclear, glass plate from Greiner ref 788896). The plate is centrifuged, sealed and incubated for 3 hours at 22° C. in the dark. The polarized fluorescence is measured with a Zeiss-HTS reader or any equivalent equipment (610-660 nm).
All compounds were tested to determine IC50 in a serial dilution experiment. The concentration at which 50% inhibition of the fluorescent GR ligand Fluormone™ GS Far Red is obtained (the IC50) is determined after fitting with a sigmoidal dose-response model of a plot of the logarithm of the concentration versus percent inhibition measured for the different concentrations. Ki's were calculated from IC50 based on Cheng-Prusoff equation (Cheng, Y, Prusoff, W H (1973) Biochem Pharmacol 22, 3099-3108): Ki=IC50/[1+D/Kd] wherein D is the concentration of the fluorescent ligand and Kd is the binding constant for the fluorescent ligand binding to the receptor under the conditions used in the competition experiment.
In general terms: Polarisation of emitted light reports the rotation of a fluorescent probe.
On to `CCOC(=O)c1ccc(COc2ccc([C@@H](C)[C@@](O)(c3cnc(C)cn3)C(F)(F)F)c(Cl)c2)cc1` (racemic) [Example 1, 4-{3-Chloro-4-[3,3,3-trifluoro-2-hydroxy-1-methyl-2-(5-methyl-pyrazin-2-yl)-propyl]-phenoxymethyl}-benzoic acid ethyl ester], for which the Ki was determined as 76.6 nM. Consider `COC(=O)Cc1ccc(COc2ccc([C@@H](C)[C@@](O)(c3cnc(C)cn3)C(F)(F)F)c(Cl)c2)cc1` (racemic) [Example 11, (4-{3-Chloro-4-[3,3,3-trifluoro-2-hydroxy-1-methyl-2-(5-methyl-pyrazin-2-yl)-propyl]-phenoxymethyl}-phenyl)-acetic acid methyl ester], for which the Ki is 84 nM. For `COC(=O)c1ccc(COc2ccc([C@@H](C)[C@@](O)(c3cnc(C)cn3)C(F)(F)F)c(Cl)c2)c(OC)c1` (racemic) [Example 15, 4-{3-Chloro-4-[3,3,3-trifluoro-2-hydroxy-1-methyl-2-(5-methyl-pyrazin-2-yl)-propyl]-phenoxymethyl}-3-methoxy-benzoic acid methyl ester] the value was 72.3 nM. For the molecule `Cc1cc([C@@](O)([C@@H](C)c2ccc(Oc3ccc(C(=O)O)c(F)c3)cc2Cl)C(F)(F)F)cn(C)c1=O` (racemic) [Example 204, 4-{3-Chloro-4-[2-(1,5-dimethyl-6-oxo-1,6-dihydro-pyridin-3-yl)-3,3,3-trifluoro-2-hydroxy-1-methyl-propyl]-phenoxy}-2-fluoro-benzoic acid], the Ki turned out to be 0.4 nM. To `Cc1cc([C@@](O)([C@@H](C)c2ccc(Oc3ccc(C(=O)O)cc3Cl)cc2Cl)C(F)(F)F)cn(C)c1=O` (racemic) [Example 215, 3-Chloro-4-{3-chloro-4-[2-(1,5-dimethyl-6-oxo-1,6-dihydro-pyridin-3-yl)-3,3,3-trifluoro-2-hydroxy-1-methyl-propyl]-phenoxy}-benzoic acid] belongs 0.2 nM. To `Cc1cc([C@@](O)([C@@H](C)c2ccc(Oc3ccc(C(=O)O)cn3)cc2Cl)C(F)(F)F)cn(C)c1=O` (racemic) [Example 218, 6-{3-Chloro-4-[2-(1,5-dimethyl-6-oxo-1,6-dihydro-pyridin-3-yl)-3,3,3-trifluoro-2-hydroxy-1-methyl-propyl]-phenoxy}-nicotinic acid] belongs 1.4 nM; to `COC(=O)c1ccc(COc2ccc([C@@H](C)[C@@](O)(c3ccnc(Cl)c3)C(F)(F)F)c(Cl)c2)c(OC)c1` (relative stereo) [Example 21, 4-{3-Chloro-4-[2-(2-chloro-pyridin-4-yl)-3,3,3-trifluoro-2-hydroxy-1-methyl-propyl]-phenoxymethyl}-3-methoxy-benzoic acid methyl ester], 7.5 nM. Regarding `COC(=O)Cc1ccc(COc2ccc([C@@H](C)[C@@](O)(c3ccnc(Cl)c3)C(F)(F)F)c(Cl)c2)cc1` (relative stereo) [Example 23, (4-{3-Chloro-4-[2-(2-chloro-pyridin-4-yl)-3,3,3-trifluoro-2-hydroxy-1-methyl-propyl]-phenoxymethyl}-phenyl)-acetic acid methyl ester], the Ki worked out at 13.3 nM. As for `COC(=O)c1ccc(N(C)C(=O)c2ccc([C@@H](C)[C@@](O)(c3ccnc(Cl)c3)C(F)(F)F)c(Cl)c2)cc1` (relative stereo) [Example 28, 4-({3-Chloro-4-[-2-(2-chloro-pyridin-4-yl)-3,3,3-trifluoro-2-hydroxy-1-methyl-propyl]-benzoyl}-methyl-amino)-benzoic acid methyl ester], the Ki was found to be 114 nM. Regarding `COC(=O)c1ccc(CNC(=O)c2ccc([C@@H](C)[C@@](O)(c3ccnc(Cl)c3)C(F)(F)F)c(Cl)c2)cc1` (relative stereo) [Example 36, 4-({3-Chloro-4-[2-(2-chloro-pyridin-4-yl)-3,3,3-trifluoro-2-hydroxy-1-methyl-propyl]-benzoylamino}-methyl)-benzoic acid methyl ester], the Ki was found to be 117 nM.

With `COC(=O)Cc1ccc(NC(=O)c2ccc([C@@H](C)[C@@](O)(c3ccnc(Cl)c3)C(F)(F)F)c(Cl)c2)cc1` (relative stereo) [Example 38, (4-{3-Chloro-4-[2-(2-chloro-pyridin-4-yl)-3,3,3-trifluoro-2-hydroxy-1-methyl-propyl]-benzoylamino}-phenyl)-acetic acid methyl ester], the Ki was 155 nM. Turning to `COC(=O)c1cccc(NC(=O)c2ccc([C@@H](C)[C@@](O)(c3ccnc(Cl)c3)C(F)(F)F)c(Cl)c2)c1` (relative stereo) [Example 40, 3-{3-Chloro-4-[2-(2-chloro-pyridin-4-yl)-3,3,3-trifluoro-2-hydroxy-1-methyl-propyl]-benzoylamino}-benzoic acid methyl ester], the Ki is 121 nM. As for `C[C@H](c1ccc(C(=O)Nc2cccc(C(=O)O)n2)cc1Cl)[C@@](O)(c1ccnc(Cl)c1)C(F)(F)F` (relative stereo) [Example 44, 6-{3-Chloro-4-[2-(2-chloro-pyridin-4-yl)-3,3,3-trifluoro-2-hydroxy-1-methyl-propyl]-benzoylamino}-pyridine-2-carboxylic acid], the Ki is 228 nM. On to `CCOC(=O)c1noc(-c2ccc([C@@H](C)[C@@](O)(c3ccnc(Cl)c3)C(F)(F)F)c(Cl)c2)n1` (relative stereo) [Example 47, 5-{3-Chloro-4-[2-(2-chloro-pyridin-4-yl)-3,3,3-trifluoro-2-hydroxy-1-methyl-propyl]-phenyl}-[1,2,4]oxadiazole-3-carboxylic acid ethyl ester], for which the inhibition constant (Ki) stood at 47.1 nM. With `C[C@H](c1ccc(-c2ccc(C(=O)O)cc2)cc1Cl)[C@@](O)(c1ccnc(Cl)c1)C(F)(F)F` (relative stereo) [Example 50, 3′-Chloro-4′-[2-(2-chloro-pyridin-4-yl)-3,3,3-trifluoro-2-hydroxy-1-methyl-propyl]-biphenyl-4-carboxylic acid], the Ki was found to be 48.5 nM. For `COC(=O)c1ccc(-c2ccc([C@@H](C)[C@@](O)(c3ccnc(Cl)c3)C(F)(F)F)c(Cl)c2)cc1F` (relative stereo) [Example 53, 3′-Chloro-4′-[2-(2-chloro-pyridin-4-yl)-3,3,3-trifluoro-2-hydroxy-1-methyl-propyl]-3-fluoro-biphenyl-4-carboxylic acid methyl ester], the Ki amounted to 14.9 nM. For `C[C@H](c1ccc(COc2ccc(C(=O)O)cn2)cc1Cl)[C@@](O)(c1ccnc(Cl)c1)C(F)(F)F` (relative stereo) [Example 127, 6-{3-Chloro-4-[2-(2-chloro-pyridin-4-yl)-3,3,3-trifluoro-2-hydroxy-1-methyl-propyl]-benzyloxy}-nicotinic acid], the Ki is 5.5 nM. Regarding `C[C@H](c1cc(Oc2ccc(C(=O)O)cn2)ccc1Cl)[C@@](O)(c1ccnc(Cl)c1)C(F)(F)F` (relative stereo) [Example 133, 6-{4-Chloro-3-[2-(2-chloro-pyridin-4-yl)-3,3,3-trifluoro-2-hydroxy-1-methyl-propyl]-phenoxy}-nicotinic acid], the Ki is 207 nM. For `C[C@H](c1cc(Oc2ncc(C(=O)O)cn2)ccc1Cl)[C@@](O)(c1ccnc(Cl)c1)C(F)(F)F` (relative stereo) [Example 135, 2-{4-Chloro-3-[2-(2-chloro-pyridin-4-yl)-3,3,3-trifluoro-2-hydroxy-1-methyl-propyl]-phenoxy}-pyrimidine-5-carboxylic acid] the value was 253 nM; for `C[C@@H](c1ccc(OCc2ccc(CC(=O)O)cc2)cc1Cl)[C@](O)(c1cnc2ccccc2c1)C(F)(F)F` (relative stereo) [Example 145, {4-[3-Chloro-4-(3,3,3-trifluoro-2-hydroxy-1-methyl-2-quinolin-3-yl-propyl)-phenoxymethyl]-phenyl}-acetic acid], 1.9 nM.

By Ki is commonly meant a measure of affinity in units of concentration, obtained from inhibition or displacement.
